Results as given in ChEMBL document CHEMBL5727116, “Pyrazole compounds and methods of making and using same” (2019).

What was measured:
Monoglyceride lipase = target: T1, Monoglyceride lipase (Mus musculus, UniProt O35678); test: (§1) In Vitro Competitive Activity-Based Protein Profiling: Proteomes (mouse brain membrane fraction or cell lysates for mouse assays; human prefrontal cortex or cell membrane fractions for human assays) (50 μL, 1.0 mg/mL total protein concentration) were preincubated with varying concentrations of inhibitors at 37° C. After 30 min, FP—Rh or HT-01 (1.0 μL, 50 μM in DMSO) was added and the mixture was incubated for another 30 min at 37° C. Reactions were quenched with SDS loading buffer (15 μL-4×) and run on SDS-PAGE. Following gel imaging, serine hydrolase activity was determined by measuring fluorescent intensity of gel bands corresponding to MAGL and FAAH using ImageJ 1.43u software.Preparation of Mouse Brain Proteomes from Inhibitor Treated Mice.Inhibitors were administered to wild-type C57Bl/6J by oral gavage in a vehicle of polyethylene glycol. Each animal was sacrificed 4 h following administration and brain proteomes were prepared and analyzed according to previously established methods (See Niphakis, M. J., et al. (2011) ACS Chem. Neurosci. and Long, J. Z., et al. Nat. Chem. Biol. 5:37-44).
T1 sequence (O35678 whole entry): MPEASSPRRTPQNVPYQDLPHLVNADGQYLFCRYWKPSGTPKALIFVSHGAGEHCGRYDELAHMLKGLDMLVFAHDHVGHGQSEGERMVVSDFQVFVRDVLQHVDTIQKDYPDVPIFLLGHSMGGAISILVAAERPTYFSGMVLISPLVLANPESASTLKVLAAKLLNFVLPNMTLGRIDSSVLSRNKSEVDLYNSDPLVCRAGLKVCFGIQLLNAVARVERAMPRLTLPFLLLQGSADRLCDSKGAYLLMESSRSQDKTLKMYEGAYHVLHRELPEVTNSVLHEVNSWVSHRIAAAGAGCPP

[1] = target: T2, Fatty-acid amide hydrolase 1 (Mus musculus, UniProt O08914); test: as §1
T2 sequence (O08914 whole entry): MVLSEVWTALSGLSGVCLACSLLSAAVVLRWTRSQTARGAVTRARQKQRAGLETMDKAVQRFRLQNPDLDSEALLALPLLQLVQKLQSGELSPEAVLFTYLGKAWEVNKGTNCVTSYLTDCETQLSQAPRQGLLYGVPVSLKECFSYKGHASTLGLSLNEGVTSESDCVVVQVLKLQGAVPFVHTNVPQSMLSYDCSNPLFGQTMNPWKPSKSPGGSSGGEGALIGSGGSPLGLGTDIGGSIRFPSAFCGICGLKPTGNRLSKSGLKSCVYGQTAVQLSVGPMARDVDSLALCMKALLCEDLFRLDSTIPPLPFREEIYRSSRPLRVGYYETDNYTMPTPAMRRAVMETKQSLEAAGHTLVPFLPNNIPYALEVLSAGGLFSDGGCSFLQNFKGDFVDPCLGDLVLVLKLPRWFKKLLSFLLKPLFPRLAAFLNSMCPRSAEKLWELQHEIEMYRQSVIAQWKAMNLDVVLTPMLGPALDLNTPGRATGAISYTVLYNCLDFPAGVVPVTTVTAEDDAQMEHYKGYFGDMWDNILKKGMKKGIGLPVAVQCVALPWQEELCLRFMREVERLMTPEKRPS

| IC50 (Monoglyceride lipase) | IC50 [1] | Structure (SMILES) |
| --- | --- | --- |
| < 100 nM | – | CC(=O)N(C)c1cnn(C(=O)N2CCN(Cc3ccc(C(F)(F)F)cc3)CC2)c1 |
| < 100 nM | < 100 nM | CC(=O)N(C)c1cnn(C(=O)N2CC3CN(Cc4cc(Cl)cc(N5CCC6(CCOCC6)C5)c4)CC3C2)c1 (stereo not given) |
| – | < 100 nM | CC(=O)N(C)c1cnn(C(=O)N2CC3CN(Cc4cccc(Oc5ccccn5)c4)CC3C2)c1 (stereo not given) |
| < 100 nM | – | CC(=O)N(C)c1cnn(C(=O)N2CCN(Cc3ccc(Cl)c(Cl)c3)CC2)c1 |
